From US20100279990A1, “ANTIPROLIFERATIVE COMPOUNDS, COMPOSITIONS AND METHODS OF USE” (RAMOT AT TEL-AVIV UNIVERSITY LTD., priority 2006, published 2010)
Read-outs that look alike come from different tables or passages of the source.

How the values were obtained:
[1] = system: human colon carcinoma cells (HT29); experiment: HT29 human colon carcinoma s.c. tumor in Nude CD1 male mice; assay type: in vivo
Source text: This example illustrates the effect of several compounds, including an exemplary compound of the present invention, on tumor volume. tumor weight and body weight in mice. Nude CD1 male mice were purchased from Harlan (Israel). Animals were housed under controlled conditions (temperature, humidity) and were given food and water ad libitum. After one week of acclimatization animals were inoculated s.c. with human colon carcinoma cells (HT29) (2,000,000 cell/animals.). Therapy began 8 days after inoculation, at which time the animals were divided randomly into 4 groups (7-8 mice/group) and administered ip 3 times weekly for 4 weeks with the following compounds: […] Body weight and tumor volume were measured weekly. Tumor volume is defined as (shortest diameter)^2×(longest diameter)×0.5. At the end of the treatment, animals were sacrificed and tumors and organs collected and weighed.

[2] = system: CEM/C1 human leukemia cells; experiment: Cell proliferation of CEM/C1 human leukemia cells, 3H thymidine incorporation; assay type: cell-based; settings: for cell proliferation: 1 μM, 3H thymidine incorporation 24 hours; for effect on cell proliferation: already evident at 1 μM; for inhibition at 10 µM: Homo sapiens, 3H thymidine incorporation
Experimental: […] Cells, 10,000/well, were harvested and the incorporated radioactivity was determined by liquid scintillation in a beta counter.

[3] = system: human Jurkat lymphoma cells; experiment: Viability of human Jurkat lymphoma cells, alamar blue staining; assay type: cell-based; settings: for IC50: Homo sapiens, 48 hr, alamar blue
Experimental: This example illustrates cell viability data derived from the incubation of a human. […] The results are depicted in FIGS. 1A, 1B, and 1C. […] See Nociari et al., J. Immunol. […] Each point represents the mean+/−SE of 4 determinations.

[4] = system: CEM/C1 cell-lines (camptothecin resistant human T-cell leukemia); experiment: Viability of CEM/C1 cell-line, alamar blue; assay type: cell-based; settings: 1-30 μM
Source text: This cell-line is a camptothecin (CPT) resistant derivative of the human T-cell leukemia purchased from ATCC (USA). […] The results are depicted in FIG. 14. Each point represents the mean+/−SEM of 4 determinations.

[5] = system: human Jurkat lymphoma cells; experiment: Viability of human Jurkat lymphoma cells, dexamethasone alone and in combination; assay type: cell-based; settings: Homo sapiens, 20 μM alone, FIG. 13B, read-out: inhibition of cell viability
Jurkat Lymphoma cells = experiment: Viability of Jurkat Lymphoma cells, combination with Doxorubicin; assay type: cell-based; settings: Homo sapiens, Doxorubicin 20 μM alone, read-out: inhibition of cell viability
[6] = system: human colon carcinoma cells (HT29)
[7] = system: human colon carcinoma cells (HT29); experiment: cells; settings: HT-29, read-out: cell viability
[8] = system: Con-A activated naive mouse splenocytes; experiment: Con-A-induced mouse splenocyte proliferation, alamar blue staining; assay type: cell-based
Source text: This example illustrates cell viability data obtained by separately administering different concentrations of compound (Ia), paroxetine, citalopram, and ecitalopram to Con-A activated naive mouse splenocytes. FIG. 3A depicts the comparative effect of compound (Ia), paroxetine, citalopram and ecitalopram on Con-A-induced mouse splenocyte proliferation using alamar blue staining after 48 hr. Each point represents the mean+/−SE of 5 determinations.

[9] = system: Caspase 3 activity of LS1034 human colon MDR carcinoma cells; experiment: Caspase-3 activity in LS1034 human colon MDR carcinoma cells; assay type: cell-based; settings: 10 or 20 μM, 4 hr after exposure
Experimental: Caspase 3 activity was measured by an enzymatic fluorimetric method using a fluorigenic substrate (Ac-DEVD-AMC), which produces blue fluorescence detected at 360 nm wavelength. […] When AMC is cleaved from the substrate by caspase-3, and caspase-3-like enzymes, it produces a yellow-green fluorescence, which can be monitored by a fluorimeter at 460 nm. The amount of yellow green fluorescence is proportional to the activity of caspase-3 in the cell extract sample.
Whole cell lysate was added to a buffer containing 100 μM peptide substrate, 100 mM HEPES, 10% glycerol, 1 mM EDTA and 10 mM dithiothreitol. Measurements were taken every 5 min for 80 min. These experiments were also monitored in the presence of a specific caspase-3 inhibitor, DEVD-AMC-CHO, which was added after 45 or 60 min to the reaction mixture, to ascertain the specificity of the enzyme.

human glioma U87 cells = experiment: Viability of human glioma U87 cell-line; assay type: cell-based; settings: FIG. 9
[10] = system: human keratinocytes (HaCat cells); experiment: Viability of human keratinocytes (HaCat cells), neutral red staining; assay type: cell-based; settings: 24 hr, read-out: IC50, cell viability
human tumor cell lines = experiment: In vitro antitumor activity in panel of 37 human tumor cell lines (Monolayer Assay, PI), summary; assay type: cell-based; settings: mean over human cancer cell-lines
[11] = system: c-jun and p-c-jun expression in HaCat cells; experiment: Western blot of c-jun and p-c-jun expression in HaCat cells; assay type: cell-based, human; settings: 15 μM, 1 hr
Source text: For each sample 2×10^7 cells were used. The cells were lysed, and equal amounts of protein was fractionated on polyacrylamide gel and then transferred to PVDF membrane. The amount of the protein was detected by immuno-blotting with monoclonal anti-c-Jun or p-c-Jun antibodies (Cayman, Ann Arbor, Mich., USA). A second antibody conjugated to horseradish peroxidase was used and visualized with chemiluminescent Kit (Pierce, Rockford, Ill., USA) on film. […] Activation of the […] pathway produces p-c-Jun as a major end, while initiating apoptosis in certain cell-lines.

[12] = FIG. 1C, read-out: IC50, inhibition of cell viability

O=c1[nH]cc(F)c(=O)[nH]1 [5 FU, fluorouracil, reference compound]
tumor volume ([1]; HT29 tumor in nude mice, ip 3 times weekly, after 3 and 4 weeks of therapy, FIG. 16): significantly decreased compared to the control groups

OCCCC#Cc1cc2c(cc1OC[C@@H]1CNCC[C@H]1c1ccc(F)cc1)OCO2 [compound (Ib), (3S-trans)-3-((6-(5-hydroxy-1-pentyn-1-yl)-1,3-benzodioxol-5-yloxy)methyl)-4-(4-fluorophenyl)-piperidine]
effect compared to sertraline and paroxetine [2]: significantly higher effects compared to sertraline and paroxetine | cell proliferation [2]: 43.6 % of controls | effect on cell proliferation [2]: dose dependent decrease in cell proliferation | IC50 [3, 12]: 19.5 µM | potency compared with paroxetine ([3]; concentrations higher than 5 μM, FIG. 1C): higher potency than paroxetine | IC50 [4]: 7.6 µM

CN[C@H]1CC[C@@H](c2ccc(Cl)c(Cl)c2)c2ccc(C#CCCCOC)cc21.Cl [compound (Ic), (1S-cis)-4-(3,4-dichlorophenyl)-7-(5-methoxy-1-pentyn-1-yl)-1,2,3,4-tetrahydro-N-methyl-1-naphthalenamine hydrochloride]
inhibition at 10 µM [2]: ~95% | effect on cell proliferation [2]: dose dependent decrease in cell proliferation | IC50 ([3]; FIG. 1B, read-out: IC50, decrease in cell viability): 17 µM | potency compared with sertraline ([3]; lower concentrations (1-10 μM), FIG. 1B): higher potency than sertraline | IC50 [4]: 13.5 µM

C[C@@H]1C[C@H]2[C@@H]3CCC4=CC(=O)C=C[C@]4(C)[C@@]3(F)[C@@H](O)C[C@]2(C)[C@@]1(O)C(=O)CO [dexamethasone, reference compound]
cytotoxicity at 20 µM [5]: 8%

COc1cccc2c1C(=O)c1c(O)c3c(c(O)c1C2=O)C[C@@](O)(C(=O)CO)C[C@@H]3O[C@H]1C[C@H](N)[C@H](O)[C@H](C)O1 [doxorubicin, reference compound]
cell proliferation [2]: 65.7 % of controls | inhibition at 10 µM [2]: ~95% | cytotoxicity at 20 µM (Jurkat Lymphoma cells): 54% | effect on cell viability compared with the antidepressants and compound (Ia) ([6]; 10 and 20 μM, FIG. 2A): more pronounced than that produced by the antidepressants and compound (Ia) | viability at 30 µM [7]: 57.7%

CN(C)CCC[C@@]1(c2ccc(F)cc2)OCc2cc(C#N)ccc21 [ecitalopram, reference compound]
effect on cell viability ([3]; low concentrations (2.5 and 5.0 μM), FIG. 1A): slight decrease in cell-viability | effect on cell-viability ([8]; up to 30 μM): no effect on cell-viability

Fc1ccc([C@@H]2CCNC[C@H]2COc2ccc3c(c2)OCO3)cc1 [paroxetine, reference compound]
caspase-3 activity [9]: dose dependent increase in the activity of caspase-3 | effect on cell viability (human glioma U87 cells): inhibit this glioma cell-line in a dose dependant fashion | IC50 ([3]; FIG. 1A, read-out: IC50, anti-proliferative activity): 37.7 µM | IC50 [3, 12]: 37.6 µM | IC50 [4]: 12.3 µM | viability at 30 µM [7]: 74% | IC50 [10]: 16 µM | IC50 ([8]; Splenocyte, 48 hr, alamar blue, read-out: IC50, inhibition in cell viability): 11.9 µM

CN[C@H]1CC[C@@H](c2ccc(Cl)c(Cl)c2)c2ccccc21 [sertraline]
caspase-3 activity [9]: dose dependent increase in the activity of caspase-3 | effect on cell viability (human glioma U87 cells): inhibit this glioma cell-line in a dose dependant fashion | efficacy compared with paroxetine (human glioma U87 cells): higher efficacy than paroxetine | potency compared with paroxetine ([6]; 10-30 μM, FIG. 2A): higher potency than paroxetine | potency compared with paroxetine and fluoxetine ([6]; equimolar doses, FIG. 2B): significantly more potent than paroxetine and fluoxetine | viability at 30 µM [7]: 60.3% | decrease in body weight ([1]; compared to 5 FU or controls, FIG. 18): 10% | histopathological assessment of spleen, liver and kidney ([1]; end of treatment): change in capsule fibrosis at random | mean IC70 (human tumor cell lines): 13 µM | effect on c-Jun / p-c-Jun (MAPK pathway) [11]: activation of the c-Jun-N-terminal kinase (JNK) pathway
